Laboratory results published in patent US20090227602A1, “COMPOSITIONS AND TREATMENTS FOR INHIBITING KINASE AND/OR HMG-COA REDUCTASE” (priority 2005, published 2009).
Counter-ions that a name gives are not always drawn. Like-named read-outs stand apart in the source and are kept apart here.

Legend:
[1] = target: T1, rat liver hydroxymethylglutaryl-CoA reductase (Rattus norvegicus, UniProt P51639); test: Inhibition of rat liver HMG-CoA reductase; assay type: biochemical; conditions: rat liver HMG-CoA reductase activity inhibited by 50%; read-out: HMG-CoA R IC50
T1 sequence (P51639 1-887): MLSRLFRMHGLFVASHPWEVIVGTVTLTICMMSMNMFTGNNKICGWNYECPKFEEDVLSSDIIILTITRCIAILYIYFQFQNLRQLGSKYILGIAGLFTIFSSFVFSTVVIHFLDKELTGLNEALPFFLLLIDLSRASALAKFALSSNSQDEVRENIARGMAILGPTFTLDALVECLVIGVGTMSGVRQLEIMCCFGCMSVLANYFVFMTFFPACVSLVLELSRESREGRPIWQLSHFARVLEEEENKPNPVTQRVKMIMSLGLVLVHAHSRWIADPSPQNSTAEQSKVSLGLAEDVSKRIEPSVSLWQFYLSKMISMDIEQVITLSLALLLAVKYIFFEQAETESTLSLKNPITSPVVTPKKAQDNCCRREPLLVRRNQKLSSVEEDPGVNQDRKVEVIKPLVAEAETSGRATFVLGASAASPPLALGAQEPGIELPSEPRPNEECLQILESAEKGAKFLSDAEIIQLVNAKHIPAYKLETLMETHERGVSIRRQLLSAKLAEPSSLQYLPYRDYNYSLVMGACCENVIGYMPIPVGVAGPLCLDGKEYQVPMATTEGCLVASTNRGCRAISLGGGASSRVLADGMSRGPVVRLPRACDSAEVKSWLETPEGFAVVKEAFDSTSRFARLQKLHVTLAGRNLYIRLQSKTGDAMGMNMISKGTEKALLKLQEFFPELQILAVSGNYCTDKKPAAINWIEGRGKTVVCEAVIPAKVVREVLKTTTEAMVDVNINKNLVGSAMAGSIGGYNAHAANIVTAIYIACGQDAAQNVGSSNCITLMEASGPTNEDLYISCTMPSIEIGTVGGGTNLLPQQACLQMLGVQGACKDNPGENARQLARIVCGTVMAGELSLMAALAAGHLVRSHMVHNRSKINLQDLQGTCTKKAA
Protocol: (§1) The biological activities of compounds of the present invention were measured in assays which include: • 1) Inhibition of rat liver HMG-CoA reductase. Further details on the assay are present in Heller, R. A.; Gould, R. G. Biochem. Biophys. Research Commun. 1973, 50, 859 and Kubo, M.; Strott, C. A.; Endocrinology 1987, 120, 214. • 2) Inhibition of recombinant human p38αMAPK • 3) Inhibition of lipopolysaccharide (LPS)-stimulated release of tumor necrosis factor alpha (TNFα) from human peripheral blood mononuclear cells (PBMC).

[2] = system: lipopolysaccharide-stimulated release of TNFα from human peripheral blood mononuclear cells (PBMC); test: Whole cell LPS-stimulated TNF-α release assay; assay type: cell-based; conditions: read-out: TNFα Release IC50
Protocol: as §1
Whole Cell LPS-Stimulated TNF-α Release Assay: The procedure as described in Welker et al., Int. Arch. Allergy and Immunol. 109:110-115 (1996) was followed. Briefly, a candidate compound and/or vehicle was preincubated with human peripheral blood mononuclear leukocytes (PBML, 5×10^5/ml) cells in AIM-V medium pH 7.4 for 2 hours. Lipopolysaccharide (LPS, 25 ng/ml) was added to stimulate the cells, which was incubated overnight at 37° C. TNF-α cytokine levels in the conditioned medium was then quantitated using a sandwich ELISA kit.

[3] = target: T2, recombinant human p38α MAPK (Homo sapiens, UniProt Q16539); test: Human p38α MAP kinase inhibition assay (cell-free); assay type: biochemical; conditions: MBP substrate, 100 μM ATP
T2 construct: purchased UBI 14-251; host or cells: E. coli
T2 sequence (Q16539 whole entry): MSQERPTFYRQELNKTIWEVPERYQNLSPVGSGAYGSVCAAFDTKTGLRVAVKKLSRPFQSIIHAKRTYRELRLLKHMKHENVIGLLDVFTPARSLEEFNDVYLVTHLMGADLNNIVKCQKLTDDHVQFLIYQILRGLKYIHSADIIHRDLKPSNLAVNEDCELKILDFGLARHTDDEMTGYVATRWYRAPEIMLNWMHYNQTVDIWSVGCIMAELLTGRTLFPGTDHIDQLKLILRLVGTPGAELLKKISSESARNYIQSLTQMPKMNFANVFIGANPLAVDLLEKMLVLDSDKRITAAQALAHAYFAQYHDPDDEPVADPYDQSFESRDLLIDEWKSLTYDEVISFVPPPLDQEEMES
Protocol: as §1
Human p38αMAP Kinase Inhibition Assay: In vitro cell-free p38αMAP kinase inhibition assays were conducted by the method as described in Clerk et al., FEBS Lett., 426:93-96 (1998) for a number of lactones in formulas I/IIa/IIb. Briefly, human recombinant p38α protein kinase expressed in E. coli (UBI #14-251) was used. Myelin basic protein (MBP, UBI #13-110) was employed as substrate, and microtiter plate wells were coated with MBP (0.01 mg/ml) overnight at 4° C. Candidate compound and/or vehicle was preincubated with 0.075 μg/mL enzyme in modified HEPES buffer pH 7.4 at 25° C. for 15 minutes. The reaction was initiated by addition of 100 μM ATP and allowed to proceed for another 60 minutes. The reaction was terminated by aspirating the solution. Phosphorylated MBP was detected by incubation with a mouse monoclonal IgG2a anti-phosphoMBP antibody. Bound anti-phosphoMBP antibody was quantitated by incubation with a HRP conjugated goat anti-mouse IgG. The protein kinase activity was proportional to the readings of optical density at 405 nm resulting from reaction with an ABTS Microwell Peroxidase Substrate System.

| SMILES | IC50 [1] [µM] | IC50 ([2]; LPS-stimulated human PBMC) [µM] | IC50 [3] [µM] | IC50 ([2]; Homo sapiens, PBMC) [µM] |
| --- | --- | --- | --- | --- |
| CC(C)c1nc(-c2ccc(F)cc2)c(-c2ccnc(Nc3ccccc3)n2)n1/C=C/[C@@H](O)C[C@@H](O)CC(=O)O (racemic) [Example 28, (3R,5S,E) and (3S,5R,E)-7-(4-(4-fluorophenyl)-2-isopropyl-5-(2-(phenylamino)pyrimidin-4-yl)-1H-imidazol-1-yl)-3,5-dihydroxyhept-6-enoic acid sodium salt] | 0.0048 | 9.7 | 0.27 |  |
| CC(C)(C)c1nc(-c2ccc(F)cc2)c(-c2ccncc2)n1/C=C/[C@@H]1C[C@@H](O)CC(=O)O1 (racemic) [Example 34, (4R,6S) and (4S,6R)-6-((E)-2-(2-tert-butyl-4-(4-fluorophenyl)-5-(pyridin-4-yl)-1H-imidazol-1-yl)vinyl)-4-hydroxytetrahydro-2H-pyran-2-one] |  | 190 | 1.8 |  |
| CC(C)c1nc(-c2ccc(F)cc2)c(-c2ccnc(Nc3ccccc3)n2)n1/C=C/[C@@H]1C[C@@H](O)CC(=O)O1 (racemic) [Example 29, (4R,6S) and (4S,6R)-6-((E)-2-(4-(4-fluorophenyl)-2-isopropyl-5-(2-(phenylamino)pyrimidin-4-yl)-1H-imidazol-1-yl)vinyl)-4-hydroxytetrahydro-2H-pyran-2-one] |  | 19 | < 0.1 |  |
| CC(C)c1nc(-c2ccc(F)cc2)c(-c2ccnc(Nc3ccccc3)n2)n1CC[C@@H](O)C[C@@H](O)CC(=O)O [Example 25, (3R,5R)-7-(4-(4-fluorophenyl)-2-isopropyl-5-(2-(phenylamino)pyrimidin-4-yl)-1H-imidazol-1-yl)-3,5-dihydroxyheptanoic acid sodium salt] | 0.098 | 9.7 | < 0.1 |  |
| CC(C)(C)c1nc(-c2ccc(F)cc2)c(-c2ccncc2)n1/C=C/[C@@H](O)C[C@@H](O)CC(=O)O (racemic) [Example 33, (3R,5S,E) and (3S,5R,E)-7-(2-tert-butyl-4-(4-fluorophenyl)-5-(pyridin-4-yl)-1H-imidazol-1-yl)-3,5-dihydroxyhept-6-enoic acid sodium salt] | 0.011 | 230 | 6 |  |
| O=C(O)C[C@H](O)C[C@H](O)CCn1c(-c2ccccc2)nc(-c2ccc(F)cc2)c1-c1ccncn1 [Example 39, (3R,5R)-7-(4-(4-fluorophenyl)-2-phenyl-5-(pyrimidin-4-yl)-1H-imidazol-1-yl)-3,5-dihydroxyheptanoic acid calcium salt] | > 1 |  | 14 | > 300 |
| CC(C)c1nc(-c2ccc(F)cc2)c(-c2ccnc(Nc3ccccc3)n2)n1CC[C@@H]1C[C@@H](O)CC(=O)O1 [Example 24, (4R,6R)-6-(2-(4-(4-fluorophenyl)-2-isopropyl-5-(2-(phenylamino)pyrimidin-4-yl)-1H-imidazol-1-yl)ethyl)-4-hydroxytetrahydro-2H-pyran-2-one] |  | < 3 | 0.11 |  |
| O=C1C[C@H](O)C[C@@H](CCn2c(-c3ccccc3)nc(-c3ccc(F)cc3)c2-c2ccncn2)O1 [Example 40, (4R,6R)-6-(2-(4-(4-fluorophenyl)-2-phenyl-5-(pyrimidin-4-yl)-1H-imidazol-1-yl)ethyl)-4-hydroxytetrahydro-2H-pyran-2-one] |  | 26 | 1.4 |  |
